Data on 2 molecules can be found in ChEMBL document CHEMBL1157511, “Dictazolines A and B, bisspiroimidazolidinones from the marine sponge Smenospongia cerebriformis” (J Nat Prod, 2008).

The nature of the test: Inhibition of beta-secretase assessed as proteolytic cleavage of amyloid precursor protein.

Molecules are shown by their SMILES. Activity calls are given as the source filed them. The rule behind the calls is not given here.

Regarding `CN1C(=N)N(C)[C@@]2(Cc3c([nH]c4ccccc34)[C@]3(C(=O)N(C)C(=N)N3C)[C@@H]2c2c[nH]c3cc(Br)ccc23)C1=O`, the result was inactive. Take `CN1C(=N)N(C)[C@@]2(Cc3c([nH]c4ccccc34)[C@]3(C(=O)N(C)C(=N)N3C)[C@@H]2c2c[nH]c3ccccc23)C1=O`: the result was inactive.
